According to patent publication US20200329698A1, “COMPOSITIONS FOR ORGAN GRAFT PRESERVATION AND METHODS OF USE” (Nobilis Therapeutics, Inc., priority 2019, published 2020):

Legend:
[1] = tested on: rat renal grafts from DBD donation or DCD donation; conditions: Dex 0.1 nM in UW at 4° C., cold ischemia 24 hr, vs vehicle
Protocol: For in vivo fluorescence or DAB staining, 25-μm frozen lung sections were incubated with rabbit anti-Rip1 (1:200, SANTA CRUZ BIOTECHNOLOGY®), rabbit anti-Rip3 (1:200, SANTA CRUZ BIOTECHNOLOGY®), mouse anti-HMGB-1 (1:200, Abcam), Goat anti-TLR-4 (1:200, SANTA CRUZ BIOTECHNOLOGY®), rabbit anti-Nrf-2 (1:200, SANTA CRUZ BIOTECHNOLOGY®), mouse anti-SOD-1 (1:200, Abcam), mouse anti-NQO-1 (1:200 Abcam), rabbit anti-3-nitrotyrosine (1:200, Abcam) and rabbit anti-4-hydroxynonenal (1:200, Abcam) at 4° C. overnight. After washing with PBST, the slides were incubated with fluorochrome-conjugated secondary antibodies (MILLIPORE™, UK). For double-labelled immunofluorescence, lung samples were incubated with the first primary antibody overnight, followed by the first secondary antibody, and then the second primary antibody and the second secondary antibody. The slides were counterstained with nuclear dye DAPI and mounted with […]® Mounting Medium (Vector lab, USA). Sections were examined using an OLYMPUS™ (Watford, UK) BX4 microscope under constant exposure level. Immunofluorescence was quantified using ImageJ (National Institutes of Health, Maryland, USA) and the background was subtracted. Ten representative regions per section (in vivo) or field (in vitro) were randomly selected by an assessor blinded to the treatment groups. Values were then calculated as percentages of the mean value for naïve controls and expressed as percentage fluorescence intensity.
Lung alveolar cell death was detected by the in situ TUNEL assay (MILLIPORE™) according to the manufacturer's instructions. TUNEL nuclei were visualized by green FITC fluorescence.
(§1) A rat renal graft machine perfusion model was developed, (see FIG. 1B) to simulate the renal graft preservation process. A series of experiments were conducted using the Fischer-to-Lewis allogeneic renal transplant model. Grafts from donors after brain death (DBD) or cardiac arrest (DCD) were used. The preserving solution was saturated with dexmedetomidine at 0.1 nM[32]. The grafts were extracted and then machine-perfused with UW solution at 4° C.[18] with a flow rate of 1.5-2 ml/min [39] for 4 hours and then kept in the preserving solution until 24 hours. Grafts were then transplanted into Lewis recipient immediately following extraction (cold-ischemia 0 hr), or stored in preservative solution for 24 hr (cold-ischemia 24 hr), The orthotopic renal transplantation into Lewis recipients was conducted and their contralateral kidneys were removed at the end of surgery. The recipient received cyclosporine A (5 mg/kg/day intramuscular injection per day) for 10 days to prevent acute immune rejection.

[2] = tested on: rat renal grafts from DBD donation or DCD donation
Protocol: Rat renal transplantation was performed. Rat donor kidneys were transplanted orthotopically into recipients by using standard microvascular techniques. […] After the specified period of cold ischemia, the recipient's left kidney was extracted, and the donor renal vein was connected to the recipient renal vein through end-to-end anastomosis. The arterial anastomosis between the donor aortic patch was connected to the recipient aorta in an end-to-side manner. Urinary reconstruction was performed by ureter-to-bladder anastomosis. The total surgical ischemia time was restricted to <45 min. The contralateral kidney was removed immediately after engraftment.
Tumor necrosis factor-α (TNF-α) in the culture medium were detected by ELISA (Human TNF-α ELISA kits, INVITROGEN®, UK). Rat lung tissue and serum TNF-α were measured by ELISA (Rat TNF-α ELISA kits, INVITROGEN®, UK).
MTS was performed on paraffin-embedded tissue according to the manufacturer's instructions (MTS kit; SIGMA-ALDRICH®, Ltd., Poole, UK). The amount of collagen deposition (percentage of MTS-stained area) was then digitally quantified with ImageJ software (U.S. National Institutes of Health, Bethesda, Md., USA).
Blood samples were collected when the animals were euthanized. After centrifugation, serum urea and creatinine concentrations were measured with an AU2700 analyzer (OLYMPUS).
as §1
With respect to FIGS. 4A-4J, Fischer rat renal grafts from DBD donation or DCD donation were stored in UW preservative solution at 4° C., saturated with DEX for up to 24 hrs (Cold ischemia CI 24 hr), grafts harvested from donor (cold ischemia CI 0 hr) serves as control. (A and B) Serum creatinine and urea concentration were analyzed 24 hours after transplantation (n=6). (C and D) Tissue cytokine TNF-α and IL-1β concentration was assessed by ELISA. (E) TUNEL staining of renal tubules in renal cortices 24 hours after transplantation. Scale bar=50 μm. In DCD grafts, Infiltrated CD68+ macrophages (Red fluoresce; F) and renal fibrosis (blue MTS staining; G) on day 8 after transplantation were assessed. In both DCD and DBD grafts, (H) Analysis of the percentage of TUNEL+ tubular cells in renal cortices. (I) The number of CD68+ macrophage, and (J) the area of MTS staining. Data is expressed as mean±SD (n=6). […] CI: cold ischemia, Vh: Vehicle, Dex: Dexmedetomidine.

[3] = tested on: ex vivo renal grafts from brain death or cardiac arrest donors; assay: Rat hypothermic machine perfusion model; conditions: exposure of ex vivo grafts prior to engraftment
[4] = tested on: JAK/STAT signaling pathway; conditions: cited from earlier work
[5] = after transplantation, graft stored with Dex 0.1 nM, CI 24 hr
[6] = day 16 after surgery, graft stored with Dex 0.1 nM

Cc1cccc([C@H](C)c2cnc[nH]2)c1C [Dexmedetomidine]
Heme oxygenase 1 (HO-1) expression, immunofluorescence [1]: significantly increased | Nrf2 expression, immunofluorescence [1]: significantly increased | necroptosis (expression of MLKL) [1]: suppressed necroptosis | renal graft architecture / morphology (H&E staining, injury scoring) [1]: preserved the renal graft architecture | tissue injury in the renal cortex (TUNEL cell death staining) [1]: reduced tissue injury in the renal cortex | cell death (number of TUNEL+ cells) in renal cortices ([2]; 24 hours after transplantation, graft stored with Dex 0.1 nM): reduced | tissue level of cytokine IL-1β (ELISA) [2, 5]: reduced tissue level | tissue level of cytokine TNF-α (ELISA) [2, 5]: reduced tissue level | renal functional recovery (serum creatinine and urea) ([2]; day 1 (24 hours) after transplantation, graft stored with Dex 0.1 nM, CI 24 hr): induced a quick functional recovery | macrophage infiltration (number of CD68+ cells) [2, 6]: attenuated | renal fibrosis (MTS staining) [2, 6]: attenuated | protection in ex vivo renal allograft from cardiac arrest donation ([2]; overall conclusion): conferred significant protection | organ graft injury, histologically and functionally [3]: prevent organ graft injury | level of p-JAK2 and its downstream effectors p-STAT1 and STATS ([4]; mice, warm ischemia-reperfusion injury): significant reduced level | long-term renal function ([4]; mouse, in vivo): long-term functional renoprotection | survival ([4]; mouse, in vivo): increased survival | tubular architecture and function following renal ischemia ([4]; pre- or post-treatment): improved tubular architecture and function
